We go through 3 compounds from patent US11376261B2, “Methods for diagnosing and managing treatment of atopic dermatitis” (University of Cincinnati, priority 2017, dated 2022).

Test [1] has as its system AD skin lesions. Briefly: Pre- vs post-treatment cutaneous gene expression, betamethasone and pimecrolimus (NCBI GEO GSE32473), overlap with 89ADGES. The test is classed as in vivo, human. The following applies: application to AD skin lesions, Fold Change ≥2.0, p-value<0.05. As for the experimental part: (§1) Pre- and post-treatment gene expression datasets have been retrieved from publicly accessible database NCBI GEO, including datasets related to three widely-used treatments for AD: betamethasone and pimecrolimus (NCBI GEO data GSE32473), and dupilumab 300 mg (NCBI GEO data GSE59294).
Members of 89ADGES that are differentially regulated due to the application of betamethasone to AD skin lesions. […] CCL18, MSMB, SERPINB3 and SERPINB4 genes are associated with multiple array IDs.
BTC, CCL18, MSMB, IL-37, SERPINB3 and SERPINB4 genes are associated with multiple array IDs.
(§2) FIG. 6 is a table showing expression of members of the ECZEMA55 gene panel compared to normal skin. Expression changes are due to different treatment options. Betamethasone, pimecrolimus, and dupilumab are shown. Note direction and magnitude of treatment-related expression change for each gene. Treatment inducing change in a direction opposite to that occurring in ECZEMA55 can drive treatment-associated health benefits.

The test system of the next test is ECZEMA55 genes. As to the kind of experiment: Quantitative RT-PCR of ECZEMA55 genes in pre- and post-treatment skin biopsy of an AD patient (Example 7). The conditions noted are these: one AD patient; 600 mg then two 300 mg s.c. injections over 4 weeks. The test is classed as in vivo, human. On the procedure: An AD patient comes to the clinic with severe itch and lesions on at least 45% of their body surface. Symptoms indicate a possible diagnosis of atopic dermatitis. They are not sufficiently controlled by topical treatments like pimecrolimus and betamethasone. The patient is advised to begin dupilumab treatment. Duplimumab is administered by subcutaneous injection at recommended dosing for adult patients, which is initially at a dose of 600 mg, followed by 300 mg administered every two weeks. The patient is given one 600 mg injection followed by two 300 mg injections over the course of 4 weeks. Pre- and post-treatment samples are collected and stored in RNA later solution (Invitrogen) at −80° C.
Pre- and post-treatment skin biopsy is performed using a minimally invasive disposable punch. The skin biopsy site is swabbed with isopropyl alcohol (70%) and anesthetized with local anesthetic (1 mL of 1% lidocaine+adrenaline). Using a punch biopsy needle, a 4 mm^2 full thickness skin biopsy from the lesion is obtained and stored in RNA later solution and sent to the diagnostic lab to perform RT-PCR assay.
RNA is isolated from the tissue and subjected to quantitative RT-PCR to compare the levels of expression of the ECZEMA55 genes of the patient's tissue to normal healthy skin. […] The treatment is assessed as effective and the patient is advised to receive further dupilumab treatment doses.

Test [2] concerns AD skin lesions. Briefly: Pre- vs post-treatment cutaneous gene expression, dupilumab 300 mg (NCBI GEO GSE59294), overlap with 89ADGES. The format is in vivo, human. The conditions noted are these: administration of dupilumab 300 mg, Fold Change ≥2.0, p-value<0.05. As for the experimental part:
as §1
CCL18, IL-37, SERPINB3 and SERPINB4 genes are associated with multiple array IDs.
Samples in Dupilumab dataset include GSE59294.
as §2

The test system of test [3] is atopic dermatitis. The conditions noted are these: Dupilumab 300 mg, GSE59294, cited from earlier work; for EASI-POST: post-treatment; for EASI-PRE: pre-treatment.
Test [4] has as its system atopic dermatitis. Briefly: Symptom score of paired patient samples (pEASI reduction in GSE32473; pre-/post-treatment EASI in GSE59294). The test is classed as in vivo, human. On the procedure:
Gene expression data related to ECZEMA55 genes were extracted for pre- and post-treatment samples. Values were expressed as post-treatment/pre-treatment ratio. Variable selection or feature selection was performed by clustering of 55 genes into smaller number of coherent clusters and identifying the most representative gene per cluster. Representative genes were used to build a regression model which can be used to efficiently model the data. Outcome variable was defined either as the reduction in symptom score (available as per subject pEASI reduction; pEASI=partial EASI reduction in dataset GSE32473) or as the post-treatment symptom score (taking pre-treatment symptom score as an independent covariate and per subject pre-treatment symptom scores is available, as in the dataset GSE59294). A regression model was generated and regression trees were constructed. Classification/prediction and efficiency of the model were determined. Samples in Dupilumab dataset include GSE59294. […] We therefore added pre-treatment symptom score for analysis and for generating regression models

Read-outs that look alike come from different tables or passages of the source.

Consider `C[C@H]1C[C@H]2[C@@H]3CCC4=CC(=O)C=C[C@]4(C)[C@@]3(F)[C@@H](O)C[C@]2(C)[C@@]1(O)C(=O)CO` [betamethasone], for which the “Number of 89ADGES genes differentially regulated in treated biopsy samples compared to baseline pre-treatment condition” value in the test with AD skin lesions [1] is listed as 45 genes.
Turning to `CC[C@@H]1/C=C(\C)C[C@H](C)C[C@H](OC)[C@H]2O[C@@](O)(C(=O)C(=O)N3CCCC[C@H]3C(=O)O[C@H](/C(C)=C/[C@@H]3CC[C@H](Cl)[C@H](OC)C3)[C@H](C)[C@@H](O)CC1=O)[C@H](C)C[C@@H]2OC` [pimecrolimus], in the test on AD skin lesions [1], the “Number of 89ADGES genes differentially regulated in treated biopsy samples compared to baseline pre-treatment condition” value was 41 genes.
Turning to “dupilumab: fully humanized monoclonal IgG4 antibody that inhibits IL-4 and IL-13 signaling by binding the IL-4Rα subunit”, the “Direction of ECZEMA55 gene expression change after treatment” value in the test on ECZEMA55 genes is given as “opposite to gene expression in AD disease state compared to healthy skin”. In addition, the “Number of ECZEMA55 genes with expression changed compared to pre-treatment” value with ECZEMA55 genes is “about 30 genes”. For the same compound, the “Number of 89ADGES genes differentially regulated in treated biopsy samples compared to baseline pre-treatment condition” value with AD skin lesions [2] stood at 42 genes. Also, the values for the EASI-POST with atopic dermatitis [3] (Patient 1), with atopic dermatitis [3] (Patient 2) and in the test on atopic dermatitis [3] (Patient 3) were 9.105, 3.835 and 1.526, respectively. Further, the EASI-PRE is on record as 34.6 with atopic dermatitis [3] (Patient 1), 31.45 in the test on atopic dermatitis [3] (Patient 2) and 34.65 in the test with atopic dermatitis [3] (Patient 3). Moreover, the EASI-post/pre with atopic dermatitis [4] (Patient 1, Dupilumab 300 mg) is on record as 0.263; in the test with atopic dermatitis [4] (Patient 2, Dupilumab 300 mg), 0.122; in the test on atopic dermatitis [4] (Patient 3, Dupilumab 300 mg) it was 0.044.
